PMC8951750, “In Vitro Anticancer and Cancer-Preventive Activity of New Triterpene Glycosides from the Far Eastern Starfish Solaster pacificus” (Marine Drugs, 2022)
Where “and” joins values, the source holds several entries; their conditions need not be identical. Equal values may be shown once. Read-outs that look alike come from different tables or passages of the source.

Key:
melanoma RPMI-7951 cells = conditions: non-toxic concentration of 0.5 μM; cited from earlier work
[1] = tested on: breast cancer MDA-MB-231 cells; conditions: non-toxic concentration of 0.5 μM; cited from earlier work
[2] = tested on: colorectal carcinoma HT-29 cells; conditions: non-toxic concentration of 0.5 μM; cited from earlier work
[3] = tested on: human melanoma cells SK-MEL-28; test: Cell viability, MTS assay, SK-MEL-28; type: cell-based
Method: (§1) MTS assay was used to measure the cell viability of tested normal and cancer cells. Cells were seeded into 96-well plates (“Jet Biofil”, Guangzhou, China) at density of 1.0 × 10^4/200 µL for 24 h at 37 °C in a 5% CO2 incubator. Then, cell monolayer was treated either with DMSO (control) or various concentrations of the triterpene glycosides 1–9 from S. pacificus (0.1, 0.5, 2.5, 12.5, 62.5 µM) in fresh appropriate culture medium for 24 h. Subsequently, the cells were incubated with 15 µL of 3-(4,5-dimethylthiazol-2-yl)-5-(3-carboxymethoxyphenyl)-2-(4-sulfophenyl)-2H-tetrazolium (MTS reagent) (“Promega”, Madison, WI, USA) for 3 h, and the absorbance of each well was measured at 490/630 nm using Power Wave XS microplate reader (“BioTek”, Wynusky, VT, USA). The concentration at which the compounds exert half of their maximal inhibitory effect on cell viability (IC50) was calculated by the AAT-Bioquest® online calculator [39]. The selectivity index (SI) was calculated as described previously using the following formula SI = IC50 of the compounds in normal cell (JB6 Cl41)/IC50 of the same compounds in human melanoma cell lines (SK-MEL-2, SK-MEL-28, or RPMI-7951).

[4] = tested on: human melanoma cells RPMI-7951; test: Cell viability, MTS assay, RPMI-7951; type: cell-based; conditions: for SI (selectivity index) RPMI-7951: IC50 JB6 Cl41 / IC50 RPMI-7951
Method: as §1

[5] = tested on: human melanoma cells SK-MEL-2; test: Cell viability, MTS assay, SK-MEL-2; type: cell-based
Method: as §1

SK-MEL-2 cells = test: Soft agar assay, colony formation of cancer cells; type: cell-based, human; conditions: compound 0.1 µM, 14 days
Method: SK-MEL-2 cells (2.4 × 10^4) were treated either with DMSO (control) or the triterpene glycosides 1–9 from S. pacificus (0.1 µM) in 1 mL of agar mix. After 14 days, colonies of cancer cells were scored as described above.

JB6 Cl41 cells [6] = test: Soft agar assay, X-ray-induced neoplastic cell transformation; type: cell-based, mouse; conditions: Mus musculus, JB6 Cl41, 504 h, read-out: inhibition of X-ray-induced cell transformation (JB6 Cl41 colonies formation), compound 0.1 µM, X-rays 0.5 Gy three times a week for 3 weeks, soft agar
Method: (§2) JB6 Cl41 cells (2.4 × 10^4) were exposed to epidermal growth factor (EGF) (1 ng/mL) or phorbol 12-myristate 13-acetate (TPA) (10 ng/mL) and treated either with DMSO (control) or the triterpene glycosides 1–9 from S. pacificus (0.1, 0.5, and 1 µM) in 1 mL of 0.3% basal medium Eagle (BME) agar containing 10% FBS, 2 mM L-glutamine, and 25 µg/mL gentamicin (agar mix). The cultures were maintained in a humidified atmosphere with 5% CO2 at 37 °C for 14 days, and the cell’s colonies were scored using a microscope, Motic AE 20 (XiangAn, Xiamen, China), and the ImageJ software bundled with 64-bit Java 1.8.0_112 (NIH, Bethesda, MD, USA). To determine the effect of investigated compounds on neoplastic cell transformation induced by ionizing radiation (X-ray or UVB), JB6 Cl41 cells (3 × 10^5/dish) were seeded in 60 mm dishes and cultured for 24 h at 37 °C in 5% CO2 incubator. Then, the cells were exposed to X-rays (X-ray system XPERT 80 (KUB Technologies, Inc, Milford, CT, USA)) at dose of 0.5 Gy or UVB (wavelengths below 312 nm) (Bio-Link UV irradiation system, Vilber, France) at dose of 0.3 J/cm^2 three times a week for 3 weeks. Irradiated JB6 Cl41 cells (2.4 × 10^4) were treated either with DMSO (control) or the triterpene glycosides 1–9 from S. pacificus (0.1, 0.5, and 1 µM) in 1 mL of agar mix. The cultures were maintained in a humidified atmosphere with 5% CO2 at 37 °C for 14 days, and the cell’s colonies were scored using a microscope, Motic AE 20 (XiangAn, Xiamen 361101, China), and the ImageJ software bundled with 64-bit Java 1.8.0_112 (NIH, Bethesda, MD, USA).

[7] = tested on: non-cancerous mouse epidermal cells JB6 Cl41; test: Cell viability, MTS assay, JB6 Cl41; type: cell-based
Method: as §1

JB6 Cl41 cells [8] = test: Soft agar assay, EGF-induced neoplastic cell transformation; type: cell-based, mouse
Method: as §2

JB6 Cl41 cells [9] = test: Soft agar assay, UVB-induced neoplastic cell transformation; type: cell-based, mouse
Method: as §2

[10] = tested on: Human erythrocytes (O(I)+); test: Hemolysis assay; type: cell-based; conditions: 1 h, 37 °C, PBS pH 7.4
Method: Human erythrocytes (O(I)+) were obtained from Vladivostok blood transfusion station. Erythrocytes were centrifuged with PBS (pH 7.4) for 5 min at 4 °C by 450× g on a LABOFUGE 400R (Heraeus, Hanau, Germany) centrifuge three times. Then, the residue of erythrocytes was resuspended in ice-cold PBS (pH 7.4) to a final optical density of 2.0 at 700 nm and kept on ice. For the hemolytic assay, 180 µL of erythrocyte suspension was mixed with 20 µL of Cucumarioside A2-2 (positive control) and investigated compounds at concentrations range of 0.1, 0.5, 1, 5, 10 µM in V-bottom 96-well plates. After 1 h of incubation at 37 °C, plates were centrifuged at 900× g for 10 min on an LMC-3000 (Biosan, Riga, Latvia) laboratory centrifuge. Then, we carefully selected 100 µL of supernatant and transferred it to new flat plates, respectively. Lysis of erythrocytes was determined by measuring the concentration of hemoglobin in the supernatant with a microplate photometer Multiskan FC (Thermo Fisher Scientific, Waltham, MA, USA) at 570 nm. The effective dose causing 50% of erythrocytes hemolysis (ED50) was calculated using the computer program SigmaPlot 10.0. All experiments were made in triplicate, p < 0.01.

JB6 Cl41 cells [11] = test: Soft agar assay, TPA-induced neoplastic cell transformation; type: cell-based, mouse
Method: as §2

Compound | suppression of colony formation of RPMI-7951 cells (melanoma RPMI-7951 cells) | suppression of colony formation of MDA-MB-231 cells [1] | suppression of colony formation of HT-29 cells [2] | SI (selectivity index) RPMI-7951 [4] | decrease of colonies number of SK-MEL-2 cells (colony formation) (SK-MEL-2 cells) [%] | inhibition at 0.1 µM (JB6 Cl41 cells [6]) [%] | ED50, effective dose causing 50% of erythrocytes hemolysis [10] | also measured
COC1C(O)COC(OC2C(O)C(CO)OC(OC3C(C)OC(OC4C(OC5CCC6(C)C7CCC89C(=O)OC(C)(/C=C/C=C(C)C)C8C(OC(C)=O)CC9(C)C7=CCC6C5(C)C)OCC(O)C4O)C(OC4OCC(O)C(O)C4O)C3O)C2O)C1O (centres unmarked) [cucumarioside C2] | almost completely suppressed | almost completely suppressed | almost completely suppressed | – | – | – | – | –
pacificusoside C | almost completely suppressed | almost completely suppressed | almost completely suppressed | – | – | – | – | –
CO[C@@H]1[C@@H](O)[C@H](O[C@@H]2[C@@H](O)[C@H](O[C@H]3[C@H](O)[C@@H](O[C@@H]4OC[C@@H](O)[C@H](O)[C@H]4O)[C@H](O[C@H]4[C@H](O[C@H]5CC[C@]6(C)[C@@H]7CCC89C(=O)O[C@@](C)(/C=C\C=C(C)C)[C@H]8[C@@H](OC(C)=O)C[C@@]9(C)C7=CC[C@H]6C5(C)C)OC[C@@H](O)[C@@H]4O)O[C@@H]3C)O[C@H](CO)[C@H]2O)OC[C@H]1O (some centres unmarked) [cucumarioside C1] | almost completely suppressed | almost completely suppressed | almost completely suppressed | – | – | – | – | –
COC1C(O)C(CO)OC(OC2C(O)C(CO)OC(OC3C(C)OC(OC4C(OC5CCC6(C)C7CCC89C(=O)OC(C)(C=CC=C(C)C)C8C(OC(C)=O)CC9(C)C7=CCC6C5(C)C)OCC(O)C4O)C(OC4OCC(O)C(O)C4O)C3O)C2O)C1O (centres unmarked) [Compound 4, cucumarioside D] | – | – | – | 0.2 | 70 | 97 | 2.48 µM and 2.48 ± 0.05 µM | IC50 ([3]; read-out: IC50, cell viability SK-MEL-28, MTS assay, 24 h): 8.3 ± 0.1 µM; IC50 ([4]; read-out: IC50, cell viability RPMI-7951, MTS assay, 24 h): 29.2 ± 0.04 µM; IC50 ([5]; read-out: IC50, cell viability SK-MEL-2, MTS assay, 24 h): 0.67 ± 0.04 µM; IC50 ([7]; read-out: IC50, cell viability JB6 Cl41, MTS assay, 24 h, normal cells): 6.1 ± 0.4 µM; inhibition of EGF-induced neoplastic transformation of JB6 Cl41 cells (JB6 Cl41 cells [8]; compound 0.1 µM, EGF 1 ng/mL, soft agar, 2 weeks, vs positive control, 0.1 µM): 92%; inhibition at 0.1 µM (JB6 Cl41 cells [9]; Mus musculus, JB6 Cl41, light or radiation study, 504 h, read-out: inhibition of UVB-induced neoplastic cell transformation (decrease of colonies number), compound 0.1 µM, UVB 0.3 J/cm^2 three times a week for 3 weeks, soft agar): 86%; inhibition of TPA-induced neoplastic transformation of JB6 Cl41 cells (JB6 Cl41 cells [11]; compound 0.1 µM, TPA 10 ng/mL, soft agar, 2 weeks, vs positive control, 0.1 µM): 99%
C=C(C)C1C2CC3(C)C4=CCC5C(C)(C)C(OC6OCC(O)C(O)C6OC6OC(C)C(OC7OC(CO)C(O)C(OC8OC(CO)C(O)C(OC)C8O)C7O)C(O)C6OC6OCC(O)C(O)C6O)CCC5(C)C4CCC13C(=O)O2 [Compound 7, 3β-O-{3-O-methyl-β-D-glucopyranosyl-(1→3)-β-D-glucopyranosyl-(1→4)-[β-D-xylopyranosyl-(1→2)]-β-D-quinovopyranosyl-(1→2)-β-D-xylopyranosyl}-23,24,25,26,27-pentanor-5α-lanosta-7,20(22)-diene-18(16)-lactone] | – | – | – | 0.25 | 15 | < 15 | 4.07 ± 0.10 µM | IC50 ([3]; Homo sapiens, SK-MEL-28, 24 h, read-out: IC50, cell viability SK-MEL-28, MTS assay, 24 h): 23 ± 0.07 µM; SI (selectivity index) SK-MEL-28 ([3]; IC50 JB6 Cl41 / IC50 SK-MEL-28): 0.3; IC50 ([4]; Homo sapiens, RPMI-7951, 24 h, read-out: IC50, cell viability RPMI-7951, MTS assay, 24 h): 31.4 ± 0.1 µM; IC50 ([5]; Homo sapiens, SK-MEL-2, 24 h, read-out: IC50, cell viability SK-MEL-2, MTS assay, 24 h): 5.6 ± 0.1 µM; IC50 ([7]; Mus musculus, JB6 Cl41, 24 h, read-out: IC50, cell viability JB6 Cl41, MTS assay, 24 h, normal cells): 8.7 ± 0.07 µM; inhibition at 0.1 µM (JB6 Cl41 cells [8]; Mus musculus, JB6 Cl41, 336 h, read-out: inhibition of EGF-induced neoplastic transformation of JB6 Cl41 cells, compound 0.1 µM, EGF 1 ng/mL, soft agar, 2 weeks, vs positive control): 20%; inhibition of UVB-induced neoplastic cell transformation (decrease of colonies number) (JB6 Cl41 cells [9]; compound 0.1 µM, UVB 0.3 J/cm^2 three times a week for 3 weeks, soft agar): not effective; inhibition at 0.1 µM (JB6 Cl41 cells [11]; Mus musculus, JB6 Cl41, 336 h, read-out: inhibition of TPA-induced neoplastic transformation of JB6 Cl41 cells, compound 0.1 µM, TPA 10 ng/mL, soft agar, 2 weeks, vs positive control): 33%
